# Measurements from patent US5599806A, “Hydrazino and hydroxyamino-14-β-hydroxyandrostane derivatives active on the cardiovascular system processes for their preparation and pharmaceutical compositions containing same” (Sigma-Tau Industrie Farmaceutiche Riunite S.p.A., priority 1994, dated 1997).
# Where two headings read alike, the source gives them in different places.
# Experiments:
# [1] = biological target: Na^+, K^+ -ATPase receptor; assay: displacement of the specific ^3 H-ouabain binding from the Na^+, K^+ -ATPase receptor; details: ^3 H-ouabain displacement, purified Na^+
# Excerpt: a) displacement of the specific ^3 H-ouabain binding from the Na^+, K^+ -ATPase receptor purified according to Jorghensen (Jorghensen P., BBA, 1974, 356, 36) and Erdmann (Erdmann E. et al., Arzneim. Forsh., 1984, 34, 1314);
# [2] = biological target: T1, purified Na^+, K^+ -ATPase (Canis lupus familiaris, UniProt P50997); assay: inhibition of the activity of the purified Na^+, K^+ -ATPase (hydrolysis of ^32 P-ATP); type: biochemical
# T1 construct: from tissue
# Excerpt: To test the affinity for the receptor site of the Na^+, K^+ -ATPase and the inhibition of the activity of the enzyme, the following tests were used:
# b) inhibition of the activity of the purified Na^+, K^+ -ATPase measured as % of hydrolysis of ^32 P-ATP in the presence and in the absence of the tested compound (Doucet A. et al., Am. J. Physiol., 1986, 251, F851)
# [3] = hydrolysis of ^32 P-ATP, purified Na^+, K^+ -ATPase, read-out: Inhibitory Activity (-log IC50) (converted)
SMILES,Binding ^3 H-Ouab. Displacement (-log IC50) [1],"IC50 [2, 3] [µM]",IC50 [2] [µM]
"C[C@]12CC[C@H](O)C[C@H]1CC[C@@H]1[C@@H]2CC[C@]2(C)[C@@H](CNNC(=N)N)CC[C@]12O [Comp. I-aa, 17β-[2-(Amidino)]hydrazinomethyl-5β-androstane-3β,14β-diol]",6.9,,
"C[C@]12CC[C@H](O)C[C@H]1CC[C@@H]1[C@@H]2CC[C@]2(C)[C@@H](CNNC3=NCCN3)CC[C@]12O [Comp. I-ab, 17β-[2-(2-Imidazolin-2-yl)]hydrazinomethyl-5β-androstane-3β,14β-diol]",6.6,3.16,
"CN1CCN=C1NNC[C@H]1CC[C@]2(O)[C@@H]3CC[C@@H]4C[C@@H](O)CC[C@]4(C)[C@H]3CC[C@]12C [Comp. I-ac, 17β-[2-(1-Methyl-2-imidazolin-2-yl)]hydrazinomethyl-5β-androstane-3β,14β-diol]",6.0,,10
"C[C@]12CC[C@H](O)C[C@H]1CC[C@@H]1[C@@H]2CC[C@]2(C)[C@@H](CNNC3=NCCCN3)CC[C@]12O [Comp. I-ad, 17β-[2-(1,4,5,6-Tetrahydro-2-pyrimidinyl)]hydrazinomethyl-5β-androstane-3β,14β-diol]",6.5,,3.98
"CN(C)CCNC(=N)NNC[C@H]1CC[C@]2(O)[C@@H]3CC[C@@H]4C[C@@H](O)CC[C@]4(C)[C@H]3CC[C@]12C [Comp. I-ae, 17β-{2-[N-(2-Dimethylaminoethyl)amidino]}hydrazinomethyl-5β-androstane-3β,14β-diol]",5.4,,31.6
"C[C@]12CC[C@H](O)C[C@H]1CC[C@@H]1[C@@H]2CC[C@]2(C)[C@@H](CNNC(=N)Nc3ccccc3)CC[C@]12O [Comp. I-af, 17β-[2-(N-Phenylamidino)]hydrazinomethyl-5β-androstane-3β,14β-diol]",5.0,,63.1
"CC(NNC(=N)N)[C@H]1CC[C@]2(O)[C@@H]3CC[C@@H]4C[C@@H](O)CC[C@]4(C)[C@H]3CC[C@]12C (stereo partly drawn) [Comp. I-ag, 20-(2-Amidino)hydrazino-5β-pregnane-3β,14β-diol]",6.5,,6.31
"C[C@]12CC[C@H](O)C[C@H]1CC[C@@H]1[C@@H]2CC[C@]2(C)[C@@H](CNO)CC[C@]12O [Comp. I-ah, 17β-Hydroxyaminomethyl-5β-androstane-3β,14β-diol]",5.0,,79.4
"CONC[C@H]1CC[C@]2(O)[C@@H]3CC[C@@H]4C[C@@H](O)CC[C@]4(C)[C@H]3CC[C@]12C [Comp. I-ai, 17β-Methoxyaminomethyl-5β-androstane-3β,14β-diol]",5.1,,
"C[C@]12CC[C@H](O)C[C@H]1CC[C@@H]1[C@@H]2CC[C@]2(C)[C@@H](CNOCCCN)CC[C@]12O [Comp. I-ak, 17β-(3-Aminopropoxyamino)methyl-5β-androstane-3β,14β-diol]",6.9,,2.51
"C[C@]12CC[C@H](O)C[C@H]1CC[C@@H]1[C@@H]2CC[C@]2(C)[C@@H](CNOCCCCN)CC[C@]12O [Comp. I-al, 17β-(4-Aminobutoxyamino)methyl-5β-androstane-3β,14β-diol]",6.2,,
"CN(C)CCCONC[C@H]1CC[C@]2(O)[C@@H]3CC[C@@H]4C[C@@H](O)CC[C@]4(C)[C@H]3CC[C@]12C [Comp. I-an, 17β-(3-Dimethylaminopropoxyamino)methyl-5β-androstane-3β,14β-diol]",,,63.1
"CN(C)CCCCONC[C@H]1CC[C@]2(O)[C@@H]3CC[C@@H]4C[C@@H](O)CC[C@]4(C)[C@H]3CC[C@]12C [Comp. I-ao, 17β-(4-Dimethylaminobutoxyamino)methyl-5β-androstane-3β,14β-diol]",,,79.4
"CN(C)CCON(C)C[C@H]1CC[C@]2(O)[C@@H]3CC[C@@H]4C[C@@H](O)CC[C@]4(C)[C@H]3CC[C@]12C [Comp. I-ap, 17β-[N-Methyl-N-(2-dimethylaminoethoxy)amino]methyl-5β-androstane-3β,14β-diol]",5.0,100,
"C[C@]12CC[C@H](O)C[C@H]1CC[C@@H]1[C@@H]2CC[C@]2(C)[C@@H](CNOCCNC(=N)N)CC[C@]12O [Comp. I-aq, 17β-(2-Guanidinoethoxyamino)methyl-5β-androstane-3β,14β-diol]",6.0,39.8,
"CC(NOCCN(C)C)[C@H]1CC[C@]2(O)[C@@H]3CC[C@@H]4C[C@@H](O)CC[C@]4(C)[C@H]3CC[C@]12C (stereo partly drawn) [Comp. I-ar, 20β-(2-Dimethylaminoethoxyamino)-5β-pregnane-3β,14β-diol]",5.7,,63.1
"C[C@]12CC[C@H](O)C[C@H]1CC[C@@H]1[C@@H]2CC[C@]2(C)[C@@H](C=CCNNC(=N)N)CC[C@]12O [Comp. I-as, 17β-{3-[2-(Amidino)]hydrazino-1-propenyl}-5β-androstane-3β,14β-diol]",6.0,,31.6
"C[C@]12CC[C@H](O)C[C@H]1CC[C@@H]1[C@@H]2CC[C@]2(C)[C@@H](C=CCNOCCN)CC[C@]12O [Comp. I-at, 17β-[3-(2-Aminoethoxyamino)-1-propenyl]-5β-androstane-3β,14β-diol]",6.7,,10
"CN(C)CCONCC=C[C@H]1CC[C@]2(O)[C@@H]3CC[C@@H]4C[C@@H](O)CC[C@]4(C)[C@H]3CC[C@]12C [Comp. I-au, 17β-[3-(2-Dimethylaminoethoxyamino)-1-propenyl]-5β-androstane-3β,14β-diol]",5.9,39.8,
"CC(=C[C@H]1CC[C@]2(O)[C@@H]3CC[C@@H]4C[C@@H](O)CC[C@]4(C)[C@H]3CC[C@]12C)CNOCCN(C)C [Comp. I-av, 17β-[3-(2-Dimethylaminoethoxyamino)-2-methyl-1-propenyl]-5β-androstane-3β,14β-diol]",5.7,,63.1
"CN(C)CCONCC[C@H]1CC[C@]2(O)[C@@H]3CC[C@@H]4C[C@@H](O)CC[C@]4(C)[C@H]3CC[C@]12C [Comp. I-ax, 17β-[2-(2-Dimethylaminoethoxyamino)ethyl]-5β-androstane-3β,14β-diol]",5.7,39.8,
"CN(C)CCONCCC[C@H]1CC[C@]2(O)[C@@H]3CC[C@@H]4C[C@@H](O)CC[C@]4(C)[C@H]3CC[C@]12C [Comp. I-ay, 17β-[3-(2-Dimethylaminoethoxyamino)propyl]-5β-androstane-3β,14β-diol]",5.8,39.8,
"CN(C)CCONC[C@@]1(O)CC[C@]2(O)[C@@H]3CC[C@@H]4C[C@@H](O)CC[C@]4(C)[C@H]3CC[C@]12C [Comp. I-ba, 17β-(2-Dimethylaminoethoxyamino)methyl-5β-androstane-3β,14β,17α-diol]",5.2,,100
"CN(C)CCONC[C@H]1CC[C@]2(O)[C@@H]3CC[C@@H]4C[C@@H](OCCN)CC[C@]4(C)[C@H]3CC[C@]12C [Comp. I-bc, 3β-(2-Aminoethoxy)-17β-(2-dimethylaminoethoxyamino)methyl-5β-androstane-14β-ol]",6.1,39.8,
"CN(C)CCONC[C@H]1CC[C@]2(O)[C@@H]3CC[C@@H]4C[C@@H](OCCN5CCCC5)CC[C@]4(C)[C@H]3CC[C@]12C [Comp. I-bd, 3β-[2-(1-Pyrrolidinyl)ethoxy]-17β-(2-dimethylaminoethoxyamino)methyl-5β-androstane-3β,14β-diol]",6.2,,31.6
"CN(C)CCONC[C@H]1CC[C@]2(O)[C@@H]3CC[C@@H]4C[C@@H](OCCCN5CCCC5)CC[C@]4(C)[C@H]3CC[C@]12C [Comp. I-be, 3β-(3-(1-Pyrrolidinyl)propoxy)-17β-(2-dimethylaminoethoxyamino)methyl-5β-androstane-3β,14β-diol]",6.0,,
